Structures are written as SMILES.

Assay [1] deals with SAN cells. Kind of assay: Spontaneous APs / pacing rate of isolated SAN cells from WT mice (patch clamp). It counts as cell-based, mouse. The conditions noted are these: 2 μM TRAM-34 added to 50 nM isoproterenol. The protocol:
WT and CASQ2 D307H KI mice were anesthetized with isofluorane and sacrificed by cervical dislocation. The heart was rapidly removed and transferred into Tyrode solution containing heparin. […] The area was cleaned, cut into small strips and washed into a Low Calcium Solution, containing (in mM): 140 NaCl, 5.4 KCl, 0.5 MgCl2, 1.2 KH2PO4, 5 HEPES-NaOH, 50 taurine, 5.5 glucose (pH 6.9). The osmolarity was adjusted if needed to 315 mOsm.
The same solution, supplemented with 1 mg/ml albumin, 200 μM CaCl2, collagenase Type I (Worthington) or liberase TH (Roche), protease (Sigma) and elastase (Sigma) was used for enzymatic digestion as previously described [See, Mesirca, P., et al. Nat Commun 5, 4664 (2014)]. In this step, the tissue was gently resuspended with a polished Pasteur pipette in this solution for 9-13 minutes at 37° C. SAN samples were then washed three times in a modified “Kraftbrühe” solution, containing (in mM): 70 glutamic acid, 80 KOH, 20 KCl, 10 γ-Hydroxybutyric acid sodium salt, 10 KH2PO4, 10 HEPES-KOH, 10 taurine, 1 mg/ml albumin, 0.1 EGTA-KOH (pH 7.2). The same solution was used to re-suspend the single cells with a pipet by vigorous up and down, between 3 to 5 minutes at 37° C. Cells were then gradually exposed to increasing concentrations of calcium, following a “Ca^2+ readaptation” protocol [Mesirca et al., 2014, supra]. Experiments were performed the same day at 33° C.
In all experiments, the coverslips were perfused at 33° C. with an external solution containing (in mM): 140 NaCl, 4 KCl, 11 Glucose, 1.2 MgCl2, 1.8 CaCl2, 5.5 HEPES titrated to pH 7.4 with NaOH and adjusted at 320 mOsm with sucrose.
The spontaneous automaticity of isolated SAN cells was recorded under perforated-patch conditions by adding 30 μM β-escin49 to the intracellular solution containing (in mM): 130 KCl, 10 NaCl, 10 HEPES, 0.2 EGTA-KOH, 2 MgATP, 6.6 Phosphocreatine, 0.05 cAMP and 1 μM free Ca^2+ (pH 7.2). To record SK4 K+ current, a voltage ramp protocol was applied. SAN and hiPS-CMs were held at −40 mV and −20 mV, respectively to substantially inactivate voltage-gated Na^+ and Ca^2+ currents. Cells were stepped from −90 mV to +60 mV for 150 ms. Then, a cocktail (solution 1) containing (in mM) 0.3 cadmium, 0.025 ZD-7288 and 0.01 E-4031 was applied extracellularly to inhibit residual L-type and T-type voltage-gated Ca2+ currents, If and the IKr currents, respectively. […] For voltage-clamp recording of SAN cells, the intracellular solution was the same to that described above for recording spontaneous automaticity.
The spontaneous electric activity of the cell was recorded in the current clamp configuration of the patch clamp technique before (black trace) and during (violet trace) exposure to 2 μM clotrimazole.
FIG. 5E (Left) presents representative traces of spontaneous APs recorded in single SAN cell from WT mice.
For orientation: Patch clamp records ionic current or voltage across a cell membrane.

The target of assay [2] is T1, SK4 K+ currents (Mus musculus, UniProt O89109).
T1 construct: representative traces of SAN cells isolated from WT and CASQ2-D307H KI mice; endogenous in cells; host or cells: primary sinoatrial node (SAN) cells dissociated from WT and CASQ2-D307H KI mouse hearts
Briefly: Voltage-ramp recording of TRAM-34-sensitive current in SAN cells from WT and CASQ2-D307H KI mice. The conditions noted are these: 5 μM TRAM-34 added to solution 1. The class given is cell-based. An excerpt: Individual SAN cells were isolated from WT and CASQ2-D307H homozygous KI mice and recorded as described above, except that cells were held at −40 mV to improve their stability.
FIGS. 5A-B presents representative traces of SAN cells isolated from WT and CASQ2-D307H KI mice. […] The orange traces indicate that cells were exposed to blocker solution 1. […] The inward hump and substantial inward and outward currents disappeared upon exposure of cells to solution 1 (orange traces).

In assay [3] the test system is intact SAN tissue preparations from WT mice. Briefly: Spontaneous calcium transients ex vivo in intact SAN tissue from WT mice (Fluo-4 AM). It counts as cell-based, mouse. The conditions noted are these: 2 μM TRAM-34 in presence of 100 nM isoproterenol. The protocol: (§1) SAN tissue preparations were dissected ex vivo from WT and CASQ2-D307H KI mice as described in Torrente, A. G., et al. Proc Natl Acad Sci USA 112, 9769-9774 (2015). The dissected whole SAN tissue was pinned on a hand-made chamber and was incubated in a Tyrode solution containing 10 μM Fluo-4 AM (Thermo Fisher Scientific) and pluronic acid for 1 hour at 37° C. in the dark. The SAN tissue was washed in Tyrode at 37° C. in the dark for 10 minutes before experiments. Fluorescence of calcium transients was recorded using a photomultiplier (PTi D-104) at 35° C. and the analog signals were digitized using Digidata 1440 (Molecular Devices) and analyzed with pCLAMP 10.5 software.
(§2) To investigate the spontaneous calcium transients of the SAN, intact SAN tissue preparations dissected ex vivo from WT and CASQ2-D307H KI mice were exposed to Fluo-4 AM as previously described [Torrente, A. G., et al. Proc Natl Acad Sci USA 112, 9769-9774 (2015)].
FIG. 6A (Left) presents representative traces of spontaneous calcium transients recorded ex vivo in intact SAN tissue preparations from WT mice. […] Right: data summary of calcium transient rate (one-way-ANOVA***P=0.0003; n=12).

For assay [4], the system named is intact SAN from CASQ2 D307H KI mice. Kind of assay: Spontaneous calcium transients ex vivo in intact SAN tissue from CASQ2-D307H KI mice (Fluo-4 AM). It counts as cell-based, mouse. The conditions noted are these: 2 μM TRAM-34 added to 100 nM isoproterenol. The protocol:
as §1, §2
FIG. 6B presents representative traces of different types of calcium transient abnormalities recorded in intact SAN from CASQ2 D307H KI mice, termed as “local Ca^2+ release” (upper left), “double humped transients” (upper right), “large-stored released Ca^2+ waves” (lower left) and “calcium alternans” (lower right).
FIG. 6C presents representative trace of spontaneous calcium transients recorded from intact SAN of CASQ2 D307H KI. The baseline rate of calcium transients (control, black trace) yielded chaotic calcium transients (red trace) following incubation of the SAN with 100 nM isoproterenol.

Consider `Clc1ccccc1C(c1ccccc1)(c1ccccc1)n1cccn1` [TRAM-34, 1-[(2-chlorophenyl)diphenylmethyl]-1H-pyrazole], for which, in assay [1], the DD slope result was “markedly reduced the DD slope”, the MDP entry was “depolarized the MDP”, the beating rate result is recorded as “decreased the beating rate” and the “cells in which pacing activity stopped” value was 3 out of 7. The TRAM-34-sensitive current density result in assay [2] is “TRAM-34-sensitive currents with similar densities were isolated”. In addition, in assay [3], the “pattern of the Ca2+ waves” value is recorded as “did not alter the pattern of the Ca^2+ waves”. In assay [4], the “number of SANs displaying double humped transients or large-stored released Ca2+ waves” value is reported as “zero” and the “shapes of isoproterenol induced aberrant calcium waves” value is on record as “normalized the shapes of isoproterenol induced aberrant calcium waves”.

Values taken from patent US11166940B2, “Treatment of cardiac disorders by blocking SK4 potassium channel” (Ramot at Tel-Aviv University Ltd., priority 2016, dated 2021).
